Reference: patent US8796260B2, “Imidazobenzazepine CGRP receptor antagonists” (Merck Sharp & Dohme Corp., priority 2008, dated 2014)
Ends that are not written are not given here.

Assays:
[1] = clinical trials (Olesen et al. 2004); cited from earlier work
facial blood flow [2] = conditions: marmoset, electrical stimulation of the trigeminal ganglion (Doods et al. 2000); cited from earlier work
[3] = system: headache induced by CGRP infusion; conditions: control group (Petersen et al. 2005); cited from earlier work
[4] = target: T1, recombinant human CL receptor/RAMP1 (Homo sapiens, UniProt O60894+Q16602); experiment: Recombinant receptor functional assay (cAMP after human α-CGRP stimulation); format: cell-based; conditions: HEK 293 cells, 0.3 nM human α-CGRP
T1 construct: expressed in transfected cells
T1 sequence (Q16602 23-461): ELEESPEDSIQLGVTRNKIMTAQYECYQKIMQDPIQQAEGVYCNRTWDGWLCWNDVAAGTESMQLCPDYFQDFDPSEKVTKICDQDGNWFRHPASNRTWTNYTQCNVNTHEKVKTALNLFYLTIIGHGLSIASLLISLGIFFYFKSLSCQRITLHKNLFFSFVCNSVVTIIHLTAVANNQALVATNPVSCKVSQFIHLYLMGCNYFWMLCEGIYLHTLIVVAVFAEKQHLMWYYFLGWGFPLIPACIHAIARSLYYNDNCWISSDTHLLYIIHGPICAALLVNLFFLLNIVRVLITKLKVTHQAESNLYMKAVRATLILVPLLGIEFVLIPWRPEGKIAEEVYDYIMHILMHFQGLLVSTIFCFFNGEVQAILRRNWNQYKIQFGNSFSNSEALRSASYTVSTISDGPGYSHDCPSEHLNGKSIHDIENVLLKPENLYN
T1 sequence (O60894 27-148): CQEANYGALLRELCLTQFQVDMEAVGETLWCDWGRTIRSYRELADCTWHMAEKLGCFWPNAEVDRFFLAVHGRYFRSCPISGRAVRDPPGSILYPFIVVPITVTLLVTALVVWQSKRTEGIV
Method: (§1) RECOMBINANT RECEPTOR: Human CL receptor (Genbank accession number L76380) was subcloned into the expression vector pIREShyg2 (BD Biosciences Clontech) as a 5′NheI and 3′ PmeI fragment. Human RAMP I (Genbank accession number AJ001014) was subcloned into the expression vector pIRESpuro2 (BD Biosciences Clontech) as a 5′NheI and 3′NotI fragment. HEK 293 cells (human embryonic kidney cells; ATCC #CRL-1573) were cultured in DMEM with 4.5 g/L glucose, 1 mM sodium pyruvate and 2 mM glutamine supplemented with 10% fetal bovine serum (FBS), 100 units/mL penicillin and 100 μg/mL streptomycin, and maintained at 37° C. and 95% humidity. Cells were subcultured by treatment with 0.25% trypsin with 0.1% EDTA in HBSS. Stable cell line generation was accomplished by co-transfecting 10 μg of DNA with 30 μg Lipofectamine 2000 (Invitrogen) in 75 cm^2 flasks. CL receptor and RAMP I expression constructs were co-transfected in equal amounts. […]
RECOMBINANT RECEPTOR FUNCTIONAL ASSAY: Cells were plated in complete growth medium at 85,000 cells/well in 96-well poly-D-lysine coated plates (Corning) and cultured for ˜19 h before assay. […] Dose response curves were plotted and IC50 values determined from a 4-parameter logistic fit as defined by the equation y=((a−d)/(1+(x/c)^b)+d, where y=response, x=dose, a=max response, d=min response, c=inflection point and b=slope.

[5] = target: T2, CGRP receptors in SK-N-MC cell membranes (Homo sapiens, UniProt O60894+Q16602); experiment: Native receptor binding assay (125I-CGRP, SK-N-MC cell membranes); conditions: 10 pM 125I-CGRP
T2 construct: receptors in SK-N-MC cell membranes; endogenous in cells; host or cells: SK-N-MC cell membranes
T2 sequence (Q16602 23-461): as the sequence (Q16602 23-461) above
T2 sequence (O60894 27-148): as the sequence (O60894 27-148) above
Method: NATIVE RECEPTOR BINDING ASSAY: The binding of ^125I-CGRP to receptors in SK-N-MC cell membranes was carried out essentially as described (Edvinsson et al. (2001) Eur. J. Pharmacal. 415, 39-44). Briefly, membranes (25 μg) were incubated in 1 mL of binding buffer [10 mM HEPES, pH 7.4, 5 mM MgCl2 and 0.2% bovine serum albumin (BSA)] containing 10 pM ^125I-CGRP and antagonist. After incubation at room temperature for 3 h, the assay was terminated by filtration through GFB glass fibre filter plates (PerkinElmer) that had been blocked with 0.5% polyethyleneimine for 3 h. The filters were washed three times with ice-cold assay buffer (10 mM HEPES, pH 7.4 and 5 mM MgCl2), then the plates were air dried. Scintillation fluid (50 μL) was added and the radioactivity was counted on a Topeount (Packard Instrument). Data analysis was carried out by using Prism and the Ki was determined by using the Cheng-Prusoff equation (Cheng & Prusoff (1973) Biochem. Pharmacol. 22, 3099-3108).

[6] = target: T1, recombinant human CL receptor/RAMP1; experiment: Recombinant receptor binding assay (125I-hCGRP); conditions: recombinant human CL receptor/RAMP1 membranes, 10 pM 125I-hCGRP
Method: as §1, with “amounts. Twenty-four hours after transfection the cells were diluted and selective medium (growth medium+300 μg/mL hygromycin and 1 μg/mL puromycin) was added the following day. A clonal cell line was generated by single cell deposition utilizing a FACS Vantage SE (Becton Dickinson). Growth medium was adjusted to 150 μg/mL hygromycin and 0.5 μg/mL puromycin for cell propagation.” for “amounts.”

[7] = system: diameter of the middle meningeal artery; conditions: rats, electrical stimulation of the dura mater, prior administration (Williamson et al. 1997); cited from earlier work
facial blood flow [8] = conditions: rat, trigeminal ganglion stimulation (Escott et al. 1995); cited from earlier work

NCCCC[C@H](NC(=O)[C@@H](Cc1cc(Br)c(O)c(Br)c1)NC(=O)N1CCC(N2Cc3ccccc3NC2=O)CC1)C(=O)N1CCN(c2ccncc2)CC1 [BIBN4096BS]
treating acute attacks of migraine [1]: effective | effect on increase in facial blood flow (facial blood flow [2]): could be blocked | prevention of headache induced by CGRP infusion [3]: able to prevent headache

CC(C)(O)c1cnc2n1Cc1c(cc(Cl)c3[nH]ncc13)C[C@H]2NC(=O)c1ccc2c(c1)CC1(C2)C(=O)Nc2ncccc21 (stereo partly drawn) [Example 4, N-[(7R)-4-chloro-10-(1-hydroxy-1-methylethyl)-3,6,7,12-tetrahydroimidazo[1′,2′:1,7]azepino[3,4-e]indazol-7-yl]-2′-oxo-1,1′,2′,3-tetrahydrospiro[indene-2,3′-pyrrolo[2,3-b]pyridine]-5-carboxamide]
IC50 [4]: < 1 µM | Ki [5]: < 1 µM | Ki [6]: < 1 µM

CGRP(8-37): a peptide CGRP antagonist; fragment of CGRP that lacks seven N-terminal amino acid residues (VTHRLAGLLSRSGGVVKNNFVPTNVGSKAF; ends and bridges not checked; UniProt P06881 90-119, looked up, fragment)
effect on increased diameter of the middle meningeal artery [7]: blocked | effect on increased facial blood flow (facial blood flow [8]): inhibited
